Measurements reported in paper PMC9475553, “SHF Acts as a Novel Tumor Suppressor in Glioblastoma Multiforme by Disrupting STAT3 Dimerization” (Advanced Science, 2022).
No end group written: not given here.

Molecular target: immobilized STAT3 (Homo sapiens, UniProt P40763)
Experiment: Static adsorption equilibrium assay, immobilized STAT3
Type: binding
Conditions: immobilized STAT3 85 nmol g^−1 wet gel; peptide 2-20 µM in PBS, stirred 12 h; free peptide by NanoDrop absorbance 240 nm; Langmuir isotherm; mean ± SD; read-out: equilibrium dissociation constant KD
Description: Considering that the SH2 domain predominantly represents the inhibition of SHF on STAT3 dimerization and activity, we speculated that this domain may be an optional target for GBM suppression. To this end, we analyzed the mechanical interaction of SHF and STAT3. The structures of human SHF (aa265‐421) and STAT3 (aa130‐715). both of which spanned their respective SH2 domain. were simulated by Swiss‐Model server (https://swissmodel.expasy.org/). To simulate the interaction of SHF and STAT3, Discovery studio 2018 was employed to complete protein‐protein docking using ZDOCK as an initial stage. A rigid body molecular docking algorithm utilizing a fast Fourier transform (FFT) algorithm was used to further improve performance for searching in translational space. All the available structures from PDB were used to calculate the docking poses and the structures obtained were subjected to energy minimization filtration using the smart minimize algorithm (Max steps 200, RMS gradient 0.01). The highest resulting ZDock score was used as the appropriate conformational pose. […] Since these two spots are located closely to one another, the sequence spanning amino acids 388–421 was used as a peptide design master. To obtain a peptide with high internalization efficiency and a strong half‐life, we introduced a palmitic acid at the N‐terminus of the master sequence and amidated the C‐terminus. The designed peptide was named C16. A scrambled peptide containing a scrambled sequence targeting Spot1 was named SC and served as a negative control peptide. […] The static adsorption equilibrium experiment of immobilized STAT3 peptide was used to detect the binding rate of the synthesized peptide with STAT3 (Figure 7C). The concentration of immobilized STAT3 used was 85 nmol g^−1 wet gel. […] Thus, C16 acted as a powerful inhibitor of STAT3 dimerization and associated activity. Next, we determined the implication of C16 in tumor inhibition. […] A concentration of 25 uM was determined to be adequate for use in the subsequent experiments. […] Further, the impact of C16 on tumor propagation was examined in an intracranial xenograft model. U87 cells expressing luciferase were implanted into mouse brains. The mice were injected intraperitoneally (i.p.) with C16 or SC once every 2 days from the third day after cell transplantation. […] To investigate the effect of C16 on cell proliferation, EdU was injected 24 h prior to sacrifice.
Figure 7 Peptide derived from the STAT3‐binding sites of SHF is an effective GBM suppressive strategy. A) Binding model between SHF and STAT3 using ZDOCK server. […] B) IF staining determined the cell penetrability and nuclear‐localization of C16. U251 cells were incubated with C16 or SC for 2 h and performed IF staining using the indicated antibodies. Bars, 10 µm. C) The statical analysis of adsorption equilibrium assay detecting the binding of C16 and SC with recombinant STAT3. D) Pull‐down assay indicating C16 binds STAT3. GST‐STAT3 was incubated with C16 or SC for 2 h, and the pull‐down assay was performed using Anti‐His magnetic beads. E) IP assay showing the effect of C16 on STAT3 dimerization. 293T cells transfected with indicated vectors were incubated with C16 for 2 h. The relative quantification of STAT3 dimerization was listed. F) IP assay detecting the effect of C16 on the interaction of STAT3 and DNMT1. […] The relative quantification of STAT3/DNMT1 interaction was listed. […] The relative quantification of STAT3/DNMT1 interaction was listed. […]

Chain of immobilized STAT3 (P40763 whole entry): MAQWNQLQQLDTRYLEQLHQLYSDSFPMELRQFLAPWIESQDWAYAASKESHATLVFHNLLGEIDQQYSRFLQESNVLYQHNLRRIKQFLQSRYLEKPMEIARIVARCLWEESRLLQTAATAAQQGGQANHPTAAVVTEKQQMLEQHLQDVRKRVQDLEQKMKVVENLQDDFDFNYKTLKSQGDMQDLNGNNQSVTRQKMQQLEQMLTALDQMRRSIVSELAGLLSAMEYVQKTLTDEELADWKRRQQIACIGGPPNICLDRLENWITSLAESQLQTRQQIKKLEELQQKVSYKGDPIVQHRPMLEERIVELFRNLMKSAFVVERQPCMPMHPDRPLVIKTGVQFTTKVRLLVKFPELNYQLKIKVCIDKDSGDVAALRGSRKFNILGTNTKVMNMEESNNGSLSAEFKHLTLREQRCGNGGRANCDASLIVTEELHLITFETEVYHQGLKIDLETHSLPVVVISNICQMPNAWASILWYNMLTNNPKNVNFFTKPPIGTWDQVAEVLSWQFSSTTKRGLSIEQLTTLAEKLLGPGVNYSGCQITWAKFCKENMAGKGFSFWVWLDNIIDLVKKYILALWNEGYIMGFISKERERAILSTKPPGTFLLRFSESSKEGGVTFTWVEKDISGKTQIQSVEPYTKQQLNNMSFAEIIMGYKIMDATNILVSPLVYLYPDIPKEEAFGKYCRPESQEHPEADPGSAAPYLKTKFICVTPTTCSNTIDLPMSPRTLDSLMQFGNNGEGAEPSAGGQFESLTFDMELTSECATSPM

- Kd: 4.08 ± 0.63 µM
Sequence: PASSNCEIVPMYHIRKLPIKGAEHMSLLYPVAIR [SC, reference compound]
